The results in this text go back to patent US7407670B2, “Solid dispersions comprising two different polymer matrixes” (Janssen Pharmaceutica, N.V., priority 2002, dated 2008).

A short description of this data set: Solubility of itraconazole in polymer solutions at 298K. In kind it is physicochemical. Conditions: eudragit E100 solution versus PVPVA64 solution. An excerpt: FIG. 10: Solubility of itraconazole in different concentration of polymer solutions at 298K in eudragit E100 (open bars) and PVPVA64 (closed bars).

Consider `CCC(C)n1ncn(-c2ccc(N3CCN(c4ccc(OCC5COC(Cn6cncn6)(c6ccc(Cl)cc6Cl)O5)cc4)CC3)cc2)c1=O` (stereo not shown) [itraconazole, Itraconazole], for which the “solubility in polymer solution (comparison in words)” value is recorded as “much higher in eudragit E100 solution”.
